“Also recorded” adds a separate entry of the source.
What was measured:
[1] = tested on: Mouse sarcoma 180 cells; assay: Survival of ICR mouse after intraperitoneal transplantation of mouse sarcoma 180 cells; assay type: in vivo; conditions: male ICR mouse, sarcoma 180 cells intraperitoneally transplanted, 300 mg/kg for ten days, observation for 19 days
Description: Mouse sarcoma 180 cells were intraperitoneally transplanted (1×10^6) to male ICR mouse and, from the next day of the transplantation, BCH which was a inhibitor for the amino acid transporter, D-Leu having a inhibiting effect on amino acid transporter and D-Ala having no inhibiting action thereon were administered at the dose of 300 mg/kg for ten days. After the transplantation, it was confirmed every day whether the mouse was dead or alive.

[2] = biological target: T1, human amino acid transporter LAT1 (Homo sapiens, UniProt Q01650); assay: Incorporation of 14C-labeled amino acids into oocytes co-expressing human LAT1 and human 4F2hc; assay type: cell-based; set-up: expressed in transfected cells; conditions: for incorporation of 14C-labeled amino acid into oocytes: oocytes co-expressing human LAT1 and human 4F2hc, 14C-labeled substrate 50 μM, 30 minutes; for incorporation in a cell in which human LAT1 and human 4F2hc are co-expressed: summary statement of the disclosure
[3] = tested on: rat liver cell line where LAT1 was highly expressed; assay: Cell proliferation of cultured rat liver cell line, Cell Counting Kit-8; assay type: cell-based; conditions: 20 mM added to William's medium, incubation for 48 hours
Description: A rat liver cell line where LAT1 was highly expressed was incubated on a William's medium, 20 mM of D-leucine or BCH which suppressed the incorporation mediated by LAT1 were added to the medium and, by means of an incubation for 48 hours, cell numbers were investigated using a Cell Counting Kit-8 (manufactured by Dojindo Laboratories). The cell numbers were measured as an absorption at 450 nm (O.D. 450).

[4] = biological target: T1, human amino acid transporter LAT1; assay: Competitive antagonism test: incorporation of 14C-labeled leucine or phenylalanine into oocytes co-expressing human LAT1 and human 4F2hc in the presence of test substance; assay type: cell-based; set-up: expressed in transfected cells; conditions: test substance 2 mM, 30 minutes; for inhibition of incorporation of 14C-labeled leucine mediated by the human LAT1: 14C-labeled leucine 20 μM, choline chloride uptake solution
[5] = tested on: T24 cells derived from human bladder cancer; assay: Inhibition of 14C-leucine incorporation by T24 cells by amino acids and similar substances; assay type: cell-based; conditions: 14C-leucine 20 μM, 2 mM unlabeled compound
[6] = biological target: T2, rat neutral amino acid transporter LAT1 (Rattus norvegicus, UniProt Q63016); assay: Inhibition of 14C-leucine incorporation into oocytes injected with rat LAT1 and rat 4F2hc cRNA by amino acids and similar substances; assay type: cell-based; set-up: expressed in transfected cells; host or cells: oocytes (Xenopus laevis by the cited method of Kanai and Hediger) injected with rat LAT1 cRNA and rat 4F2hc cRNA; conditions: rat LAT1/rat 4F2hc oocytes; 14C-leucine 20 μM, 2 mM unlabeled compound, choline uptake solution
[7] = biological target: T2, rat neutral amino acid transporter LAT1; assay: Incorporation of radiolabeled amino acids into oocytes injected with rat LAT1 and rat 4F2hc cRNA; assay type: cell-based; set-up: expressed in transfected cells; host or cells: oocytes (Xenopus laevis by the cited method of Kanai and Hediger) injected with rat LAT1 cRNA and rat 4F2hc cRNA; conditions: 14C compounds as substrates
Description: Thus, the oocytes into which rat LAT1 gene cRNA, rat 4F2hc gene cRNA or rat LAT1 gene cRNA/rat 4F2hc gene cRNA was injected were incubated for 30 minutes in an uptake solution containing ^14C-leucine (50 μM) and incorporation of radioactivity into the oocytes was measured.
As a substrate however, various radiolabeled compounds were used in place of ^14C-leucine.

[8] = biological target: T1, human amino acid transporter LAT1; conditions: read-out: Michaelis constant (Km); leucine as substrate; Xenopus laevis oocytes co-expressing human LAT1 and human 4F2hc
[9] = tested on: T24 cells derived from human bladder cancer; assay: Michaelis-Menten kinetic test for the incorporation of leucine by T24 cells; assay type: cell-based; conditions: leucine as substrate
Description: T24 cells derived from human bladder cancer were incubated and maintained in an Eagle's minimal essential medium containing 10% of fetal bovine serum. A test for the incorporation of amino acids into T24 cells was carried out by incubating the T24 cells on a 24-well plate and finished when the state became confluent. The amino acid incorporation test was started by removing the incubating solution and adding a Dulbecco's PBS (manufactured by Gibco) containing ^14C-amino acid and finished by removing it, cooling with ice and washing with a Dulbecco's PBS. After washing, the above was dissolved in 0.1N NaOH and the radioactivity was measured by a liquid scintillation counter.
A Michaelis-Menten kinetic test was carried out for the incorporation of leucine by T24 cells. The Michaelis-Menten kinetic test was conducted by investigating the changes in the incorporated rate of leucine by the difference in the concentration of the substrate leucine.

[10] = biological target: T2, rat neutral amino acid transporter LAT1; conditions: read-out: Km value; leucine as substrate; oocytes injected with rat LAT1 and rat 4F2hc cRNA

T2 sequence (Q63016 whole entry): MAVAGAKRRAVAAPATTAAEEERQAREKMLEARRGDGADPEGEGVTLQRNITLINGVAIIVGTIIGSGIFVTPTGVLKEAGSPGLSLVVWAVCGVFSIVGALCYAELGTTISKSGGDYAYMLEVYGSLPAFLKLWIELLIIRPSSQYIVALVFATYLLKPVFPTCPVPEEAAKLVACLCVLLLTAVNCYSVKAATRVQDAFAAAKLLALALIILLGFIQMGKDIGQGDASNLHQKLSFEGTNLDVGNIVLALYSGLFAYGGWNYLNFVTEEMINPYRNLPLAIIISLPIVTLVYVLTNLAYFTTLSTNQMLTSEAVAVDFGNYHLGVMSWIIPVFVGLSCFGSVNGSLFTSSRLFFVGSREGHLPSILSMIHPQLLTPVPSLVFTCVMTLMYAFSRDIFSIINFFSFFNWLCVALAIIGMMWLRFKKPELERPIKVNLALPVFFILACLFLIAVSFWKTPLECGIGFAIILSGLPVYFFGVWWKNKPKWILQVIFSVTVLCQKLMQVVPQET
T2 sequence (Q794F9 whole entry partner): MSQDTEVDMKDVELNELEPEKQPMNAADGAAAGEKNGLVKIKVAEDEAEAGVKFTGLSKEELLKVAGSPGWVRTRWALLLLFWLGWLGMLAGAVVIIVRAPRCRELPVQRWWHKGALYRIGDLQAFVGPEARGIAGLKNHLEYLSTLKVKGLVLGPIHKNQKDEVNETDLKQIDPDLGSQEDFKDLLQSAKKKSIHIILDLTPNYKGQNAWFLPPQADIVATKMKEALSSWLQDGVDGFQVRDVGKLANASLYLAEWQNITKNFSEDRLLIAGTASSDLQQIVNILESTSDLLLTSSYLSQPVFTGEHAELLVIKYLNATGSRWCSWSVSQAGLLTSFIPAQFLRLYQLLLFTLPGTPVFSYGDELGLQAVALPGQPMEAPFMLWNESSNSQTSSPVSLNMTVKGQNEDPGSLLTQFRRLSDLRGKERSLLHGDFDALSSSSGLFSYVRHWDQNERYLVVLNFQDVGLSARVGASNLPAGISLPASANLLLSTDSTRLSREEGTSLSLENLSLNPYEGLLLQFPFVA
T1 sequence (Q01650 whole entry): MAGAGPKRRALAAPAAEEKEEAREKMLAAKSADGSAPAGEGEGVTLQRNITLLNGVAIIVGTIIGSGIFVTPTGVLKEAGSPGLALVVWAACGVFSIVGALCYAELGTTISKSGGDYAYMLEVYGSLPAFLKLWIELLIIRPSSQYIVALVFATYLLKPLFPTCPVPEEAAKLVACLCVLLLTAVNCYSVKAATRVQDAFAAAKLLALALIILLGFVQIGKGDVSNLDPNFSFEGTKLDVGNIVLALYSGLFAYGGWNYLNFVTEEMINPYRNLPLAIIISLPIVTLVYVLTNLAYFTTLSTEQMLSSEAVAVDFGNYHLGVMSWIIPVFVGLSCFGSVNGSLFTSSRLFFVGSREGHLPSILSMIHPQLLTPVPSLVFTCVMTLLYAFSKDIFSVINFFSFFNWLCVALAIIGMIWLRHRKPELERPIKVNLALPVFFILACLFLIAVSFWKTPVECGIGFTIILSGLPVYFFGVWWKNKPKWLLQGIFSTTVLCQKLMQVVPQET
T1 sequence (as listed by the source partner): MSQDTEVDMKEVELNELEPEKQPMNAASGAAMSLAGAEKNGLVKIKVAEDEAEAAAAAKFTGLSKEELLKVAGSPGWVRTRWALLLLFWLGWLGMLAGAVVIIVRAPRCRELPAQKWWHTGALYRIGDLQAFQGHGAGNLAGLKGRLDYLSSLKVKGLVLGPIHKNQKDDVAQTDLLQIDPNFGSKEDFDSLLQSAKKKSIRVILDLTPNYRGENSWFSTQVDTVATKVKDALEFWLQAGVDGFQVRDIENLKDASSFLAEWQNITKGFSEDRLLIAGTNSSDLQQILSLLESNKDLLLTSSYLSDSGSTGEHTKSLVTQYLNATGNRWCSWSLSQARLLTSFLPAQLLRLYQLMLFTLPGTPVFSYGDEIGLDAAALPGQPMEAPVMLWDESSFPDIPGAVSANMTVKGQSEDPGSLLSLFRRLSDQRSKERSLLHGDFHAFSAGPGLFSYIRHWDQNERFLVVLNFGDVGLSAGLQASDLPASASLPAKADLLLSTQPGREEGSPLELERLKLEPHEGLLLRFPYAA

incorporation in a cell in which human LAT1 and human 4F2hc are co-expressed [2]	inhibition of incorporation of 14C-leucine mediated by LAT1 [6]	SMILES	incorporation of 14C-labeled amino acid into oocytes [2]	inhibition of incorporation of 14C-labeled leucine mediated by the human LAT1 [4]	inhibition of incorporation of 14C-leucine by T24 cells [5]	incorporation of radiolabeled substrate into the oocytes [7]	other results
confirmed		N[C@@H](Cc1ccc(O)c(O)c1)C(=O)O [L-DOPA]					inhibition of incorporation of 14C-labeled phenylalanine into oocytes ([4]; 14C-labeled phenylalanine instead of leucine, choline uptake solution): strongly inhibited
significant incorporation		NC(=O)C[C@H](N)C(=O)O [asparagine]					
significant incorporation		N[C@@H](CS)C(=O)O [cysteine]			strong cis-inhibiting effect		
very strong incorporation	strongly inhibited	CC(C)C[C@H](N)C(=O)O [leucine]	large incorporation; also recorded: significantly incorporated	strongly inhibited	strong cis-inhibiting effect	big incorporation; also recorded: incorporation into the oocytes was noted	Km [8]: ~21 µM; Km [9]: 100 µM; Vmax value of leucine incorporation [9]: 23,870 pmol/mg protein/minute; Km [10]: ~24 µM
	inhibited	N[C@@H](Cc1cc(I)c(Oc2cc(I)c(O)c(I)c2)c(I)c1)C(=O)O [thyroxin]					
very strong incorporation	strongly inhibited	CC(C)[C@H](N)C(=O)O [valine]	significantly incorporated	strongly inhibited	strong cis-inhibiting effect	incorporation into the oocytes was noted	

The remaining lines, values behind:

SMILES	incorporation in a cell in which human LAT1 and human 4F2hc are co-expressed [2]	inhibition of incorporation of 14C-leucine mediated by LAT1 [6]	incorporation of 14C-labeled amino acid into oocytes [2]	inhibition of incorporation of 14C-labeled leucine mediated by the human LAT1 [4]	inhibition of incorporation of 14C-leucine by T24 cells [5]	incorporation of radiolabeled substrate into the oocytes [7]	other results
C[C@@H](N)C(=O)O [D-Ala]							survival effect [1]: No survival effect
CC(C)C[C@@H](N)C(=O)O [D-leucine]			incorporated				survival effect [1]: significant survival effect; cell numbers (O.D. 450) compared with control group [3]: a reduction in the cell numbers was noted
N[C@H](Cc1ccccc1)C(=O)O [D-phenylalanine]			incorporated				
N=C(N)NCCC[C@H](N)C(=O)O [arginine]				not affected at all			
N[C@@H](CC(=O)O)C(=O)O [aspartic acid]				not affected at all			
N[C@@H](CCC(=O)O)C(=O)O [glutamic acid]				not affected at all			
NC(=O)CC[C@H](N)C(=O)O [glutamine]	significant incorporation						
N[C@@H](Cc1c[nH]cn1)C(=O)O [histidine]	very strong incorporation	strongly inhibited	significantly incorporated	strongly inhibited	strong cis-inhibiting effect	incorporation into the oocytes was noted	
CC[C@H](C)[C@H](N)C(=O)O [isoleucine]	very strong incorporation	strongly inhibited	significantly incorporated	strongly inhibited	strong cis-inhibiting effect	incorporation into the oocytes was noted	
NCCCC[C@H](N)C(=O)O [lysine]				not affected at all			
N[C@@H](Cc1ccc(N(CCCl)CCCl)cc1)C(=O)O [melphalan]		inhibited					
CSCC[C@H](N)C(=O)O [methionine]	very strong incorporation	strongly inhibited	significantly incorporated	strongly inhibited	strong cis-inhibiting effect	incorporation into the oocytes was noted	
N[C@@H](Cc1ccccc1)C(=O)O [phenylalanine]	very strong incorporation	strongly inhibited	significantly incorporated	strongly inhibited	strong cis-inhibiting effect	incorporation into the oocytes was noted	
C[C@@H](O)[C@H](N)C(=O)O [threonine]	significant incorporation						
N[C@@H](Cc1c[nH]c2ccccc12)C(=O)O [tryptophan]	very strong incorporation	strongly inhibited	significantly incorporated	strongly inhibited	strong cis-inhibiting effect	incorporation into the oocytes was noted	
N[C@@H](Cc1ccc(O)cc1)C(=O)O [tyrosine]	very strong incorporation	strongly inhibited	significantly incorporated	strongly inhibited	strong cis-inhibiting effect	incorporation into the oocytes was noted	
